Experimental data: US20130156934A1, “MICROCAPSULES BY COACERVATION CONTAINING A PHARMACEUTICAL INCORPORATED IN THE COATING POLYMER” (APTALIS PHARMA LIMITED, priority 2003, published 2013)

Assays:
[1] = Dissolution test according to USP 26 at pH 1.2; format: physicochemical; details: caffeine
Description: The microcapsutes obtained, when analysed with an electronic microscope (FIG. 3), show a distribution of the particles of the active principle within the polymeric membrane in the form of solid particles that are prevalently disposed at the interface between the polymer and the core. […] Dissolution test was performed according to USP 26.

[2] = Dissolution test according to USP 26 at pH 6.8; format: physicochemical
Description: A dissolution test is carried out on the microcapsules thus obtained comparing them with anhydrous theophylline in crystalline form.
The dissolution test was performed according to USP 26.
A dissolution test is carried out on the microcapsules obtained in Examples 5 and 6 according to the method previously described for Example 4
Dissolution test was performed according to USP 26
A dissolution test is carried out on the microcapsules thus obtained compared to fluoxetine raw material.
Dissolution test was performed according to USP 26.

**Q.** Which “Dissolution % at pH 1.2, 60 min” value [1] does the source give for `Cn1c(=O)c2c(ncn2C)n(C)c1=O` [Caffeine] here?
**A.** The value was 100%.

**Q.** For `Cn1c(=O)c2[nH]cnc2n(C)c1=O` [Anhydrous Theophylline], which “Dissolution % at pH 6.8, 5 min” value ([2]; theophylline, USP 26) is on record?
**A.** Its value is 65%.

**Q.** And the “Dissolution % at pH 6.8, 10 min” value ([2]; theophylline, Table of Example 7, lower head)?
**A.** The value was 100%.

**Q.** And the “Dissolution % at pH 6.8, 15 min” value ([2]; 15 min, theophylline, USP 26)?
**A.** Its value is 100%.

**Q.** With `CNCCC(Oc1ccc(C(F)(F)F)cc1)c1ccccc1` (stereo not shown) [Fluoxetine] as the compound, how does the “Dissolution % at pH 6.8, 5 min” value ([2]; fluoxetine, USP 26) read?
**A.** The value was 55%.

**Q.** What about the “Dissolution % at pH 6.8, 10 min” value ([2]; fluoxetine, USP 26) of the same compound?
**A.** Its value is 75%.

**Q.** What about the “Dissolution % at pH 6.8, 20 min” value ([2]; 20 min, fluoxetine, USP 26) of the same compound?
**A.** Its value is 100%.
